# Entries after “also recorded” stand apart in the source; their conditions may differ.
# How the values were obtained:
# [1] = target: Citrine-eDHFR-PM and Cherry-FKBP WT (Escherichia coli, UniProt P0ABQ4); test: Translocation to plasma membrane and FLIM in MCF-7 cells, FKBP WT; type: cell-based; details: 2 μM, 2 h
# FKBP(F36V) = FKBP(F36V) (Homo sapiens, UniProt P62942, F37V); details: cited from earlier work
# wild type FKBP = wild type FKBP (Homo sapiens, UniProt P62942); details: cited from earlier work
# Beclin1 = details: starved EGFP-LC3 MCF-7 cells, 1 μM
structure (smiles),measurement,setting,value
CCC(C)(C)C(=O)C(=O)N1CCCCC1C(=O)O[C@H](CCc1ccc(OC)c(OC)c1)c1cccc(NC(=O)CCC(=O)NCCCOCCOCCOCCCNC(=O)COc2c(OC)cc(Cc3cnc(N)nc3N)cc2OC)c1 (some centres unmarked) [SLF-TMP],translocation of cognate binding domain FKBP WT to the plasma membrane,[1],cannot induce translocation
CCC(C)(C)C(=O)C(=O)N1CCCC[C@H]1C(=O)O[C@H](CCc1ccc(OC)c(OC)c1)c1cccc(OCC(=O)O)c1 [SLF],affinity to FKBP(F36V),FKBP(F36V); in words,low affinity
same,Kd,wild type FKBP; read-out: Kd for endogenous FKBP,10 to 20 nM
CCC(C(=O)N1CCCCC1C(=O)O[C@H](CCc1ccc(OC)c(OC)c1)c1cccc(OCC(=O)NCCCOCCOCCOCCCNC(=O)COc2c(OC)cc(Cc3cnc(N)nc3N)cc2OC)c1)c1cc(OC)c(OC)c(OC)c1 (some centres unmarked) [SLF′-TMP],autophagy (LC3 puncta) on Beclin1 knock off / knock on,Beclin1,Inhibition of autophagy
CCC(C(=O)N1CCCCC1C(=O)O[C@H](CCc1ccc(OC)c(OC)c1)c1cccc(OCC(=O)O)c1)c1cc(OC)c(OC)c(OC)c1 (some centres unmarked) [SLF′],Kd,FKBP(F36V); read-out: Kd for binding domain of FKBP(F36V),0.094 nM
same,binding to naturally occurring (unmutated) FKBP,wild type FKBP; in words,does not bind at all; also recorded: very low affinity
same,fold lower affinity for wild type FKBP than for mutant FKBP(F36V),wild type FKBP; wild type versus F36V,> 1000 fold
"COc1cc(Cc2cnc(N)nc2N)cc(OC)c1OC [TMP, 5-(3,4,5-trimethoxybenzyl)pyrimidine-2,4-diamine]",autophagy (LC3 puncta) on Beclin1 knock off / knock on,Beclin1,Recovery of autophagy

# — patent publication US20150168420A1, “BIOORTHOGONAL CHEMICAL INDUCERS OF REVERSIBLE DIMERIZATION FOR CONTROL OF PROTEIN FUNCTION IN CELLS” (MAX-PLANCK-GESELLSCHAFT ZUR FÖRDERUNG DER WISSENSCHAFTEN …, priority 2012, published 2015)
